# Data from US8669072B2, “Oxadiazoline ligands for modulating the expression of exogenous genes via an ecdysone receptor complex” (Intrexon Corporation, priority 2003, dated 2014).
# Where two headings read alike, the source gives them in different places.
# Legend:
# [1] = target: T1, GAL4 DBD (1-147)-CfEcR(DEF)/VP16AD-βRXREF-LmUSPEF (Choristoneura fumiferana, UniProt O77240); test: cell-based; conditions: for fold induction at 33.3 µM: 48 h, read-out: Fold Induction Average, 27-63 assay; for Rel Max FI, 27-63 assay: maximum fold induction relative to that of GS-E ligand
# T1 construct: The wild-type D, E, and F domains from spruce budworm Choristoneura fumiferana EcR (“CfEcR-DEF”)
# Method: Stably transfected cells were selected by Zeocin resistance. Individually isolated CHO cell clones were transiently transfected with a GAL4 RE-luciferase reporter (pFR Luc). 27-63 clone was selected using Hygromycin.
# (§1) Cells were trypsinized and diluted to a concentration of 2.5×10^4 cells mL. 100 μL of cell suspension was placed in each well of a 96 well plate and incubated at 37° C. under 5% CO2 for 24 h. Ligand stock solutions were prepared in DMSO and diluted 300 fold for all treatments.
# (§2) Luciferase reporter gene expression was measured 48 h after cell treatment using Bright-Glo™ Luciferase Assay System from Promega (E2650). Luminescence was detected at room temperature using a Dynex MLX microtiter plate luminometer.
# (§3) Each assay was conducted in two separate wells, and the two values were averaged. Fold inductions were calculated by dividing relative light units (“RLU”) in ligand treated cells with RLU in DMSO treated cells. EC50s were calculated from dose response data using a three-parameter logistic model.
# [2] = target: T2, GAL4 DBD-CfEcR(DEF)/VP16AD-MmRXRE (Choristoneura fumiferana, UniProt O77240); test: 13B3 assay: luciferase reporter gene induction in stable CHO clone 13B3; assay type: cell-based; conditions: for fold induction at 33.3 µM: 48 h, read-out: Fold Induction Average, 13B3 assay
# T2 construct: The wild-type D, E, and F domains from spruce budworm Choristoneura fumiferana EcR (“CfEcR-DEF”)
# Method: CHO cells were transiently transfected with transcription cassettes for GAL4 DBD-CfEcR(DEF) and for VP16AD-MmRXRF controlled by SV40e promoters. Stably transfected cells were selected using Hygromycin. Individually isolated CHO cell clones were transiently transfected with a GAL4 RE-luciferase reporter (pFR-Luc, Stratagene, La Jolla, Calif.). The 13B3 clone was selected using Zeocin.
# as §1, §2, §3
# [3] = target: T3, Bombyx mori EcR (VBE) (Bombyx mori, UniProt P49881); test: Z3 assay: β-galactosidase reporter gene induction in HEK-293 clone Z3 (CVBE / 6XEcRE LacZ); assay type: cell-based; conditions: for fold induction at 33 µM: read-out: Fold Induction Average, Z3 assay
# T3 construct: expressed in transfected cells; host or cells: Human HEK-293 cells, retrovirally infected, clone Z3
# T3 sequence (P49881 86-606 limits assumed): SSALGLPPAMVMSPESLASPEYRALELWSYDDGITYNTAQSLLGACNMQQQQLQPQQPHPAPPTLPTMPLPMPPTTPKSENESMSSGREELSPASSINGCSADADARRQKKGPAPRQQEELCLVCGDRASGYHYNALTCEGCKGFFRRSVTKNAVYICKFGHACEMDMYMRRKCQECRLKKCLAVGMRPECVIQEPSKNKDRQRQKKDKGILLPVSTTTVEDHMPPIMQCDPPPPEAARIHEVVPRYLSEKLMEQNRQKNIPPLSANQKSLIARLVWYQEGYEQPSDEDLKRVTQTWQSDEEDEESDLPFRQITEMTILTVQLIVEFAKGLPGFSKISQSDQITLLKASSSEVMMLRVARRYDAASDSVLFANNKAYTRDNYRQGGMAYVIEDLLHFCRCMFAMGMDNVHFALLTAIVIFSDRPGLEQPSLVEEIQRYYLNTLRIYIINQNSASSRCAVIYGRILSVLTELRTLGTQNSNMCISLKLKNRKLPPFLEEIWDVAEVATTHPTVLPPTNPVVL
# T3 sequence (P19793 1-462 partner): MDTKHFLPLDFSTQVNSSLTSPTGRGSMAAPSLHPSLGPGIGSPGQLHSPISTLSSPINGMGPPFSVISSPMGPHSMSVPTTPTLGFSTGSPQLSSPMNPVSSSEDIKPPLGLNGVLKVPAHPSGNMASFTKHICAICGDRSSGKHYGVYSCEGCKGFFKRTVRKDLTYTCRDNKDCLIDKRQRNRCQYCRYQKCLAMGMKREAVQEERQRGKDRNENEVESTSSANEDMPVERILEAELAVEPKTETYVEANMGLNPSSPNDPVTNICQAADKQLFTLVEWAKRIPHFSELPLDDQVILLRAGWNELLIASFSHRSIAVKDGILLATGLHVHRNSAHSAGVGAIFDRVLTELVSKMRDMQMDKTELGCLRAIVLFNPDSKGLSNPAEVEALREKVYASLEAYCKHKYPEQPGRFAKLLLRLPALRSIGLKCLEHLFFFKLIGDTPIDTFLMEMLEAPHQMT
# Method: A synthetic ATG start codon was placed under the control of cytomegalovirus (CVBE) immediate early promoter and flanked by long terminal repeats (LTR). The reporter construct contained six copies of the ecdysone response element (EcRE) binding site placed upstream of LacZ and flanked on both sides with LTR sequences (6×EcRE).
# Dilution cloning was used to isolate individual clones. Clones were selected using 450 ug/mL G418 and 100 ng/mL puromycin. Individual clones were evaluated based on their response in the presence and absence of test ligands.
# Z3 cells were seeded into 96-well tissue culture plates at a concentration of 2.5×10^3 cells per well and incubated at 37° C. in 5% CO2 for twenty-four hours. Stock solutions of ligands were prepared in DMSO. […] The final concentration of DMSO was maintained at 0.03% in both controls and treatments.
# Reporter gene expression was evaluated 48 hours after treatment of cells, β-galactosidase activity was measured using Gal Screen™ bioluminescent reporter gene assay system from Tropix (GSY1000). Fold induction activities were calculated by dividing relative light units (“RLU”) in ligand treated cells with RLU in DMSO treated cells. Luminescence was detected at room temperature using a Dynex MLX microtiter plate luminometer.
# as §3
# [4] = 33/33.3 μM ligand, RLU relative to DMSO
# [5] = HEK293, 33 μM ligand, 48 h, RLU relative to DMSO
# [6] = maximum fold induction relative to that of GS-E ligand
Compound,EC50 [1] [µM],fold induction at 33.3 µM [1],"Rel Max FI, 27-63 assay [1]","fold induction at 33.3 µM [2, 4]","fold induction at 33 µM [3, 5]",fold induction at 33.3 µM [2],"fold induction at 33 µM ([3]; HEK293, 48 h)",EC50 [2] [µM],"Rel Max FI, 13B3 assay [2, 6]",EC50 [3] [µM],"Rel Max FI, Z3 assay [3, 6]"
CCc1ccc(C(=O)NN2C(c3ccc(OC(F)(F)F)cc3)=NOC2(C)C)cc1 [RG-120055],> 33,0.5,0,0.7,0.2,–,–,–,–,–,–
Cc1cc(C)cc(C2=NOC(C)(C)N2NC(=O)c2cccc(F)c2)c1 [RG-120002],> 33,5.7,0,0.2,3.9,–,–,–,–,–,–
"COc1cccc(C(=O)NN2C(c3cc(C)cc(C)c3)=NOC23CCc2ccccc2C3)c1C (stereo not shown) [RG-120037, N-[3-(3,5-Dimethyl-phenyl)-1-oxa-2,4-diaza-spiro[4.5]-7,8-benzo-dec-2-en-4-yl]-3-methoxy-2-methyl-benzamide]",> 33,0.4,0,0.3,0.5,–,–,–,–,–,–
CCc1c(OC)cccc1C(=O)NN1C(c2ccccc2)=NOC12CCOCC2 [RG-120159],> 33,3.7,0,0.1,0.2,–,–,–,–,–,–
CCc1ccc(C(=O)NN2C(c3ccc(OC)cc3OC)=NOC2(C)C)cc1 [RG-120135],> 33,0.7,0,0.4,0.7,–,–,–,–,–,–
CCc1ccc(C(=O)NN2C(c3ccccc3)=NOC2(C)CC)cc1 (stereo not shown) [RG-120137],> 33,4.6,0,5.3,59,–,–,–,–,–,–
CCc1ccc(C(=O)NN2C(c3ccccc3)=NOC2(C)C)cc1 [RG-120115],> 33,–,0,–,–,0.8,9.1,–,–,–,–
CCc1ccc(C(=O)NN2C(c3ccccc3)=NOC23CCOCC3)cc1 [RG-120124],> 33,1,0,1.2,2,–,–,–,–,–,–
CCc1ccc(C(=O)NN2C(c3cc(C)cc(C)c3)=NOC23CCCC3)cc1 [RG-120040],~20,242,0.13,174,202,–,–,–,–,–,–
Cc1cc(C)cc(C2=NOC(C)(C)N2NC(=O)c2ccc(Cl)cc2)c1 [RG-120024],> 33,6.3,0,2.1,3.8,–,–,–,–,–,–
CCc1c(OC)cccc1C(=O)NN1C(c2cc(C)cc(C)c2)=NOC12CCCC2 [RG-120049],3.42,2070,1.58,2660,310,–,–,3.57,1.56,1.6,0.88
CCc1c(OC)cccc1C(=O)NN1C(c2ccccc2OC)=NOC1(C)C [RG-120016],~20,1150,0.71,4.4,227,–,–,–,–,–,–
CCc1c(OC)cccc1C(=O)NN1C(c2ccc(OC)cc2OC)=NOC1(C)C [RG-120058],> 33,0.3,0,0.3,1.7,–,–,–,–,–,–
CCC1(C)ON=C(c2ccccc2)N1NC(=O)c1ccccc1 (stereo not shown) [RG-120118],> 33,13.4,0,0.8,1.4,–,–,–,–,–,–
